In experiment [1] the target is T1, purified human autoBACE-2 (Homo sapiens, UniProt Q9Y5Z0).
T1 sequence (Q9Y5Z0 63-473 limits assumed): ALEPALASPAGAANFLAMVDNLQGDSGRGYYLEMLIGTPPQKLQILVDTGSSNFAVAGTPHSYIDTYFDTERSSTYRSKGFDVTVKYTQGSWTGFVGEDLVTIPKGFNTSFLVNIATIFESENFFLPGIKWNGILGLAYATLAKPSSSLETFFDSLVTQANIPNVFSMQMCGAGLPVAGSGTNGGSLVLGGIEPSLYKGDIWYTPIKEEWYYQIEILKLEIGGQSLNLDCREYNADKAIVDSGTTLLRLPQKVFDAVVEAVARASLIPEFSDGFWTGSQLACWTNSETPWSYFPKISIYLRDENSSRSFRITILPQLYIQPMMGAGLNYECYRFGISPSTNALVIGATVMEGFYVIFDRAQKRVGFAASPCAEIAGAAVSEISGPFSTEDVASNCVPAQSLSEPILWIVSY
In words: BACE-2 Assay (BACE-HTRF assay). It is filed as biochemical. The note with it: Ki calculated from IC50 using the Cheng-Prusoff equation; QSY7-EISEVNLDAEFC-Eu-amide substrate 200 nM, pH 5.0; read-out: BACE2 Ki. How it is done:
Inhibitor ICsos at purified human autoBACE-2 are determined in a time-resolved endpoint proteolysis assay that measures hydrolysis of the QSY7-EISEVNLDAEFC-Eu-amide FRET peptide substrate (BACE-HTRF assay). BACE-mediated hydrolysis of this peptide results in an increase in relative fluorescence (RFU) at 620 nm after excitation with 320 nm light. Inhibitor compounds, prepared at 3× the desired final concentration in 1×BACE assay buffer (20 mM sodium acetate pH 5.0, 10% glycerol, 0.1% Brij-35) supplemented with 7.5% DMSO are preincubated with an equal volume of autoBACE-2 enzyme diluted in 1×BACE assay buffer (final enzyme concentration 1 nM) in black 384-well NUNC plates for 30 minutes at 30° C. The assay is initiated by addition of an equal volume of the QSY7-EISEVNLDAEFC-Eu-amide substrate (200 nM final concentration, […]) prepared in 1×BACE assay buffer supplemented with 7.5% DMSO and incubated for 90 minutes at 30° C. DMSO is present at 5% final concentration in the assay. Following laser excitation of sample wells at 320 nm, the fluorescence signal at 620 nm is collected for 400 ms following a 50 μs delay on a RUBYstar HTRF plate reader (BMG Labtechnologies). Raw RFU data is normalized to maximum (1.0 nM BACE/DMSO) and minimum (no enzyme/DMSO) RFU values. IC50s are determined by nonlinear regression analysis (sigmoidal dose response, variable slope) of percent inhibition data with minimum and maximum values set to 0 and 100 percent respectively. Similar IC50s are obtained when using raw RFU data. The Ki values are calculated from the IC50 using the Cheng-Prusoff equation.

The target in experiment [2] is soluble human BACE1 catalytic domain (Homo sapiens, UniProt P56817). In words: BACE1 HTRF FRET Assay. The class given is biochemical. The note with it: Ki calculated from IC50 using the Cheng-Prusoff equation; QSY7-APPswe-Eu substrate 200 nM, pH 5.0. From the text: Na^+-Acetate pH 5.0; 1% Brij-35; Glycerol; Dimethyl Sulfoxide (DMSO); Recombinant human soluble BACE1 catalytic domain (>95% pure); APP Swedish mutant peptide substrate (QSY7-APP^swe-Eu): QSY7-EISEVNLDAEFC-Europium-amide.
A homogeneous time-resolved FRET assay can be used to determine IC50 values for inhibitors of the soluble human BACE1 catalytic domain. This assay monitors the increase of 620 nm fluorescence that resulted from BACE1 cleavage of an APPswedish APP^swe mutant peptide FRET substrate (QSY7-EISEVNLDAEFC-Europium-amide). This substrate contains an N-terminal QSY7 moiety that serves as a quencher of the C-terminal Europium fluorophore (620 nm Em). In the absence of enzyme activity, 620 nm fluorescence is low in the assay and increased linearly over 3 hours in the presence of uninhibited BACE1 enzyme. Inhibition of BACE1 cleavage of the QSY7-APP^swe-Eu substrate by inhibitors is manifested as a suppression of 620 nm fluorescence.
Varying concentrations of inhibitors at 3× the final desired concentration in a volume of 10 ul are preincubated with purified human BACE1 catalytic domain (3 nM in 10 μl) for 30 minutes at 30° C. in reaction buffer containing 20 mM Na-Acetate pH 5.0, 10% glycerol, 0.1% Brij-35 and 7.5% DSMO. Reactions are initiated by addition of 10 μl of 600 nM QSY7-APP^swe-Eu substrate (200 nM final) to give a final reaction volume of 30 μl in a 384 well Nunc HTRF plate. The reactions are incubated at 30° C. for 1.5 hours. The 620 nm fluorescence is then read on a Rubystar HTRF plate reader (BMG Labtechnologies) using a 50 millisecond delay followed by a 400 millisecond acquisition time window. Inhibitor IC50 values are derived from non-linear regression analysis of concentration response curves. Ki values are then calculated from IC50 values using the Cheng-Prusoff equation using a previously determined […] for the QSY7-APP^swe-Eu substrate at BACE1.

In patent US9725468B2, “C5-spiro iminothiazine dioxides as BACE inhibitors, compositions, and their use” (Merck Sharp & Dohme Corp., priority 2013, dated 2017) one finds Ki data, which are given here for 35 compounds.

pKi: −log10 of the molar value.

Sequence of soluble human BACE1 catalytic domain (P56817 75-416 limits assumed): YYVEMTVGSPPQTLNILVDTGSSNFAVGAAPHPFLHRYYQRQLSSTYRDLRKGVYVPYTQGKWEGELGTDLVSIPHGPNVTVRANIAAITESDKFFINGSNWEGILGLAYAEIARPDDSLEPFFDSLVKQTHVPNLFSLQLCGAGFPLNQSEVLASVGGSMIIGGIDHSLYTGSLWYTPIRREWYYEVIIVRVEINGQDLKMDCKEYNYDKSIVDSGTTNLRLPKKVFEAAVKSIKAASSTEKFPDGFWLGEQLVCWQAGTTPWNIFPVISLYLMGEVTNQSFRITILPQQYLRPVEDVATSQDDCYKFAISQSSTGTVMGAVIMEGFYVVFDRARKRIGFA

In general, pKi refers to the Ki on a negative log10 scale, so that one unit is a factor of ten. On to `CC1(C)C(=N)N[C@@]2(COCc3ccc(NC(=O)c4cnc(C(F)(F)F)cn4)cc32)CS1(=O)=O` [Example E-21], for which the pKi in experiment [1] was 6.23; in experiment [2], 6.64.

With `CC1(C)C(=N)N[C@@]2(COCc3ccc(NC(=O)c4ccc(OCF)cn4)cc32)CS1(=O)=O` [Example E-24], the figures for the pKi in experiment [1] and in experiment [2] were 7.89 and 7.24, respectively.

Turning to `CC1(C)C(=N)N[C@@]2(COCc3ccc(NC(=O)c4ccc(F)cn4)cc32)CS1(=O)=O` [Example E-13], the pKi was 7.77 in experiment [1] and 6.90 in experiment [2].

In the case of `CC1(C)C(=N)N[C@@]2(CCOc3ccc(NC(=O)c4ccc(OC(F)F)cn4)cc32)CS1(=O)=O` [Example C-10], the pKi in experiment [1] was 7.66; in experiment [2], 8.10.

Consider `CC1(C)C(=N)N[C@@]2(CCOc3ccc(NC(=O)c4ncc(C(F)(F)F)cn4)cc32)CS1(=O)=O` [Example C-16], for which the values for the negative logarithm of the Ki (pKi) in experiment [1] and in experiment [2] were 7.01 and 6.97, respectively.

Take `CC1(C)C(=N)N[C@@]2(COCc3ccc(NC(=O)c4ccn(C(F)F)n4)cc32)CS1(=O)=O` [Example E-7]: the pKi in experiment [1] was 8.70; in experiment [2], 7.92.

`CC1(C)C(=N)N[C@@]2(CCOc3ccc(NC(=O)c4cnc(OCCF)cn4)cc32)CS1(=O)=O` [Example C-12]: the negative-log Ki (pKi) in experiment [1] is 7.01; in experiment [2], 7.35.

Take `CC1(C)C(=N)N[C@@]2(CCCc3ccc(NC(=O)c4ccc(OC(F)(F)F)cn4)cc32)CS1(=O)=O` [Example G-16]: the figures for the pKi in experiment [1] and in experiment [2] were 7.29 and 7.89, respectively.

Regarding `CC1(C)C(=N)N[C@@]2(CCOc3ccc(NC(=O)c4ccn(C(F)F)n4)cc32)CS1(=O)=O` [Example C-1], the pKi in experiment [1] was 9.00; in experiment [2], 8.52.

Take `CC1(C)C(=N)N[C@@]2(CCCc3ccc(NC(=O)c4ccc(F)cn4)cc32)CS1(=O)=O` [Example G-14]: the values for the pKi in experiment [1] and in experiment [2] were 8.15 and 7.26, respectively.

As to `COc1ccc(C(=O)Nc2ccc3c(c2)[C@]2(COC3)CS(=O)(=O)C(C)(C)C(=N)N2)nc1` [Example E-10], the pKi in experiment [1] is 7.54; in experiment [2], 6.93.

As to `CC1(C)C(=N)N[C@@]2(COCc3ccc(NC(=O)c4ccc(C#N)cn4)cc32)CS1(=O)=O` [Example E-14], the pKi in experiment [1] was 7.46; in experiment [2], 7.96.

`Cc1cc(C#N)cnc1C(=O)Nc1ccc2c(c1)[C@]1(CCO2)CS(=O)(=O)C(C)(C)C(=N)N1` [Example C-22]: the pKi is 8.52 in experiment [1] and 8.70 in experiment [2].

As for `COc1cnc(C(=O)Nc2ccc3c(c2)[C@]2(CCO3)CS(=O)(=O)C(C)(C)C(=N)N2)c(C)c1` [Example C-20], the figures for the pKi in experiment [1] and in experiment [2] were 8.52 and 7.70, respectively.

`COc1cnc(C(=O)Nc2ccc3c(c2)[C@]2(CCC3)CS(=O)(=O)C(C)(C)C(=N)N2)c(C)c1` [Example G-8]: the pKi was 8.70 in experiment [1] and 7.72 in experiment [2].

For the compound `Cc1nc(C(=O)Nc2ccc3c(c2)[C@]2(CCC3)CS(=O)(=O)C(C)(C)C(=N)N2)co1` [Example G-19], the pKi is 8.52 in experiment [1] and 7.68 in experiment [2].

Take `CC1(C)C(=N)N[C@@]2(CCCc3ccc(NC(=O)c4ccc(Cl)cn4)cc32)CS1(=O)=O` [Example F-1]: the values for the pKi in experiment [1] and in experiment [2] were 8.52 and 7.96, respectively.

In the case of `CC1(C)C(=N)N[C@@]2(CCCc3ccc(NC(=O)c4ccc(C(F)(F)F)cn4)cc32)CS1(=O)=O` [Example G-24], the pKi in experiment [1] is 7.52; in experiment [2], 8.10.

On to `CC1(C)C(=N)N[C@@]2(CCOc3ccc(NC(=O)c4ccc(Cl)cn4)cc32)CS1(=O)=O` [Example B-1], for which the pKi in experiment [1] is 8.70; in experiment [2], 8.10.

For `C#CCOc1cnc(C(=O)Nc2ccc3c(c2)[C@]2(CCO3)CS(=O)(=O)C(C)(C)C(=N)N2)cn1` [Example C-3], the figures for the pKi in experiment [1] and in experiment [2] were 7.85 and 8.52, respectively.

Consider `CC1(C)C(=N)N[C@@]2(CCOc3ccc(NC(=O)c4ccc(OCF)cn4)cc32)CS1(=O)=O` [Example C-13], for which the pKi is 8.10 in experiment [1] and 7.85 in experiment [2].

As for `C#CCOc1ccc(C(=O)Nc2ccc3c(c2)[C@]2(CCC3)CS(=O)(=O)C(C)(C)C(=N)N2)nc1` [Example G-7], the pKi was 7.29 in experiment [1] and 8.00 in experiment [2].

With `Cc1nc(C(=O)Nc2ccc3c(c2)[C@]2(CCO3)CS(=O)(=O)C(C)(C)C(=N)N2)co1` [Example C-2], the pKi in experiment [1] was 8.52; in experiment [2], 7.74.

`CC1(C)C(=N)N[C@@]2(CCCc3ccc(NC(=O)c4ccc(OC(F)F)cn4)cc32)CS1(=O)=O` [Example G-15]: the pKi is 7.66 in experiment [1] and 7.92 in experiment [2].

Regarding `Cn1cc(Cl)c(C(=O)Nc2ccc3c(c2)[C@]2(CCC3)CS(=O)(=O)C(C)(C)C(=N)N2)n1` [Example G-6], the pKi is 9.00 in experiment [1] and 7.77 in experiment [2].

As to `CC1(C)C(=N)N[C@@]2(CCOc3ccc(NC(=O)c4cn5cc(C#N)ccc5n4)cc32)CS1(=O)=O` [Example C-8], the pKi in experiment [1] is 6.80; in experiment [2], 6.92.

Turning to `CC1(C)C(=N)N[C@@]2(CCOc3ccc(NC(=O)c4ccc(C#N)cn4)cc32)CS1(=O)=O` [Example C-15], the pKi in experiment [1] was 8.05; in experiment [2], 8.52.

As for `CC1(C)C(=N)N[C@@]2(CCCc3ccc(NC(=O)c4cnc(OCCF)cn4)cc32)CS1(=O)=O` [Example G-17], the pKi was 6.81 in experiment [1] and 6.85 in experiment [2].

With `Cc1nc(C(=O)Nc2ccc3c(c2)[C@]2(COC3)CS(=O)(=O)C(C)(C)C(=N)N2)no1` [Example E-8], the pKi in experiment [1] was 7.92; in experiment [2], 6.55.

On to `CC1(C)C(=N)N[C@@]2(CCCc3ccc(NC(=O)c4ncc(C(F)(F)F)cn4)cc32)CS1(=O)=O` [Example G-22], for which the values for the pKi in experiment [1] and in experiment [2] were 6.79 and 6.80, respectively.

In the case of `CC1(C)C(=N)N[C@@]2(COCc3ccc(NC(=O)c4ccc(OC(F)F)cn4)cc32)CS1(=O)=O` [Example E-18], the pKi in experiment [1] is 7.12; in experiment [2], 7.47.

Turning to `C#CCOc1ccc(C(=O)Nc2ccc3c(c2)[C@]2(COC3)CS(=O)(=O)C(C)(C)C(=N)N2)nc1` [Example E-19], the pKi in experiment [1] is 6.73; in experiment [2], 7.52.

For the compound `C#CCOc1cnc(C(=O)Nc2ccc3c(c2)[C@]2(COC3)CS(=O)(=O)C(C)(C)C(=N)N2)cn1` [Example E-4], the results for the pKi in experiment [1] and in experiment [2] were 7.14 and 7.70, respectively.

For `Cc1nc(C(=O)Nc2ccc3c(c2)[C@]2(CCC3)CS(=O)(=O)C(C)(C)C(=N)N2)no1` [Example G-13], the pKi is 8.22 in experiment [1] and 7.08 in experiment [2].

For `Cc1cc(C#N)cnc1C(=O)Nc1ccc2c(c1)[C@]1(COC2)CS(=O)(=O)C(C)(C)C(=N)N1` [Example E-5], the values for the pKi in experiment [1] and in experiment [2] were 8.10 and 8.22, respectively.
